Literature values in patent publication US9856304B2, “Peptide and application thereof” (Saitama Medical University, priority 2013, dated 2018).

System: pancreatic β cells
Conditions: as described in Patent Document 1; cited from earlier work

Substance | activity for promoting increase in pancreatic β cells
B: 19 amino acid fragment of human TM4SF20, Position 78 to 96, from Patent Document 1 (CNNRTGMFLSSLFSVITVI; listed as Homo sapiens) | not as high as expected
C: 19 amino acid fragment of human TM4SF20, Position 161 to 179, from Patent Document 1 (TSNDTMASGWRASSFHFDS; listed as Homo sapiens) | not as high as expected
Peptide A: 19 amino acid fragment of human TM4SF20, Position 98 to 116, from Patent Document 1 (ALYCMLISIQALLKGPLMC; listed as Homo sapiens) | not as high as expected
